Data on eight molecules can be found in DBAASP.

Test systems include Candida albicans SC5314; Edwardsiella tarda; Escherichia coli JM109; Enterococcus faecalis; Escherichia coli BW25113; Pseudomonas aeruginosa; Enterococcus faecalis VR; Bacillus subtilis.
Common to all, as to test: ≥ marks a high value that may be exact or a test limit, other limits are often not marked, values filed in µg/mL are converted to µM
Test [1] deals with Candida albicans CCARM 14021.
The test system of test [2] is Candida albicans CCARM 14020.
Test [3] relates to Candida albicans CCARM 14022.
Test [4] relates to Vibrio ordalii KCCM 41669.
In test [5] the test system is Vibrio vulnificus KCTC 2982.
Test [6] concerns Streptococcus iniae FP5228.
Test [7] concerns Vibrio harveyi ATCC 14126.
The test system of test [8] is Vibrio alginolyticus KCCM 2928.
Test [9] relates to Vibrio campbellii KCCM 40684.
The test system of test [10] is Escherichia coli ATCC 25922 ΔrfaC.
For test [11], the system named is Campylobacter jejuni NCTC 11168.
Test [12] deals with Salmonella enterica subsp. enterica serovar Typhimurium LT2.
In test [13] the test system is Escherichia coli ATCC BAA-2523.
Test [14] relates to Listeria monocytogenes N22-2.
Test [15] concerns Enterococcus faecalis ATCC 29212.
Test [16] relates to Yersinia ruckeri 392/2003.
For test [17], the system named is Escherichia coli ATCC 25922.
Test [18] concerns Staphylococcus aureus ATCC 43300.
In test [19] the test system is Escherichia coli BW25113 ΔrfaC.
Test [20] has as its system Staphylococcus aureus ATCC 29213.
In test [21] the test system is Aeromonas salmonicida ATCC 33658.
Test [22] has as its system Pseudomonas aeruginosa ATCC 27853.
The subject of test [23] is Flavobacterium psychrophilum 1947.
Test [24] concerns Candida albicans TIMM 1768.
Test [25] concerns Bacillus subtilis KCTC 1918.
Test [26] has as its system Salmonella typhimurium KCTC 1926.
Test [27] deals with Trichosporon beigelii KCTC 7707.
The subject of test [28] is Staphylococcus epidermidis KCTC 3096.
The subject of test [29] is Pseudomonas aeruginosa KCTC 1637.
Test [30] relates to Enterococcus faecalis V583.
Test [31] relates to Staphylococcus aureus USA 100.
Test [32] relates to Cryptococcus neoformans var. grubii H99.
Test [33] deals with Escherichia coli DH5alpha.
Test [34] deals with Xanthomonas oryzae pv. oryzae.
The subject of test [35] is Xanthomonas campestris pv. campestris.
Test [36] relates to Pseudomonas aeruginosa CGMCC 1.860.
The test system of test [37] is Pseudomonas aeruginosa 0108.

The structures appear in SMILES notation. ≈ marks a conversion by molar mass, not a printed value. Where “and” joins values, the source holds several entries; their conditions need not be identical. Equal values may be shown once. Some results are limits rather than exact numbers.

One may read the MIC as the smallest concentration in the dilution series that meets the test's criterion for growth inhibition. Low values mean greater potency, high ones weaker potency. Take `CC(C)C[C@H](NC(=O)CNC(=O)[C@H](Cc1cnc[nH]1)NC(=O)[C@H](Cc1cnc[nH]1)NC(=O)[C@H](CCCN=C(N)N)NC(=O)[C@H](CCCCN)NC(=O)[C@H](C)N)C(=O)N[C@@H](CC(N)=O)C(=O)N[C@@H](CS)C(=O)N[C@@H](C)C(=O)N[C@@H](CCCCN)C(=O)NCC(=O)N[C@H](C(=O)N[C@@H](CC(C)C)C(=O)N[C@@H](C)C(N)=O)C(C)C` [AKRHHGLNCAKGVLA]: the MIC came out at 14.4 µM (≈ 22.6 µg/mL) in the test with Candida albicans SC5314, 3.59 µM (≈ 5.65 µg/mL) in test [1], 14.4 µM (≈ 22.6 µg/mL) in [2] and 3.59 µM (≈ 5.65 µg/mL) in [3].

On to `CC[C@H](C)[C@H](NC(=O)[C@H](C)NC(=O)[C@H](Cc1cnc[nH]1)NC(=O)CNC(=O)[C@@H](NC(=O)CNC(=O)[C@H](Cc1cnc[nH]1)NC(=O)[C@H](CC(C)C)NC(=O)[C@H](CC(C)C)NC(=O)[C@H](CCSC)NC(=O)CNC(=O)[C@H](CC(C)C)NC(=O)[C@H](Cc1ccccc1)NC(=O)CNC(=O)[C@H](CCC(=O)O)NC(=O)CN)C(C)C)C(=O)N[C@@H](Cc1cnc[nH]1)C(=O)NCC(=O)N[C@@H](CC(C)C)C(=O)N[C@H](C(=O)N[C@@H](Cc1cnc[nH]1)C(=O)NCC(=O)N[C@@H](CCCCN)C(=O)O)[C@@H](C)CC` [GEGFLGMLLHGVGHAIHGLIHGK], for which the minimal inhibitory concentration (MIC) was 0.9 µM (≈ 2.12 µg/mL) in test [4]; 5.52 µM (≈ 13 µg/mL) in test [5]; 0.9 µM (≈ 2.12 µg/mL) in test [6]; 0.9 µM (≈ 2.12 µg/mL) in [7]; 1.31 µM (≈ 3.07 µg/mL) in test [8]; ≥ 354 µM in the test on Edwardsiella tarda. For the same molecule, the MIC in the test with Escherichia coli JM109 is 2.72 µM (≈ 6.4 µg/mL); in test [9] it was 1.9 µM (≈ 4.47 µg/mL).

For the molecule `CC[C@H](C)[C@H](NC(=O)[C@H](CC(C)C)NC(=O)[C@H](CCCCN)NC(=O)[C@H](CC(C)C)NC(=O)[C@H](CC(C)C)NC(=O)[C@H](CCCCN)NC(=O)[C@H](CCCN=C(N)N)NC(=O)[C@H](Cc1ccccc1)NC(=O)[C@H](CC(C)C)NC(=O)[C@H](CCCCN)NC(=O)[C@H](CCCN=C(N)N)NC(=O)[C@H](CC(C)C)NC(=O)[C@@H](N)CCCCN)C(=O)N[C@@H](CCCN=C(N)N)C(=O)N[C@@H](CCCCN)C(=O)N[C@@H](CC(C)C)C(=O)N[C@@H](CC(C)C)C(=O)N[C@@H](CCCN=C(N)N)C(=O)O` [KLRKLFRKLLKLIRKLLR], the MIC in test [10] was 6.85 µM (≈ 16 µg/mL); in test [11], 0.856 µM (≈ 2 µg/mL); in test [12] it was 6.85 µM (≈ 16 µg/mL); in test [13], ≥ 32 µM; in test [14], 6.85 µM (≈ 16 µg/mL); in [15], 4.84 µM (≈ 11.3 µg/mL). The minimum inhibitory concentration (MIC) in the test on Enterococcus faecalis is 16 µM (≈ 37.4 µg/mL); in test [16], 4.84 µM (≈ 11.3 µg/mL); in test [17] it was 9.69 µM and 16 µM; with Escherichia coli BW25113 it was 6.85 µM (≈ 16 µg/mL); in [18] it was 16 µM (≈ 37.4 µg/mL); in [19] it was 3.42 µM (≈ 8 µg/mL). Further, the MIC was 6.85 µM and 16 µM in test [20]; 19.4 µM (≈ 45.3 µg/mL) in test [21]; 16 µM (≈ 37.4 µg/mL) in the test with Pseudomonas aeruginosa; 9.69 µM and 16 µM in [22]; 16 µM (≈ 37.4 µg/mL) with Enterococcus faecalis VR; ≥ 110 µM in [23].

Consider `CC[C@H](C)[C@H](NC(=O)CNC(=O)[C@@H](NC(=O)[C@H](CCCCN)NC(=O)[C@H](CCCCN)NC(=O)[C@H](Cc1ccccc1)NC(=O)[C@H](CC(C)C)NC(=O)[C@H](CCCCN)NC(=O)[C@H](Cc1c[nH]c2ccccc12)NC(=O)[C@@H](N)CCCCN)[C@@H](C)CC)C(=O)NCC(=O)N[C@@H](CCCCN)C(=O)N[C@@H](Cc1ccccc1)C(=O)N[C@@H](CC(C)C)C(N)=O` [KWKLFKKIGIGKFL], for which the MIC in [24] worked out at 12.5 µM (≈ 21.3 µg/mL); in test [25], 6.25 µM (≈ 10.7 µg/mL); in test [26], 1.56 µM (≈ 2.66 µg/mL); in test [27], 8.84 µM (≈ 15.1 µg/mL); in test [28], 6.25 µM (≈ 10.7 µg/mL); in [29], 3.12 µM (≈ 5.32 µg/mL).

As for `CC(C)C[C@H](NC(=O)[C@H](CC(C)C)NC(=O)[C@@H](N)CC(C)C)C(=O)NCC(=O)N[C@@H](C)C(=O)N[C@@H](C)C(=O)N[C@H](C(=O)NCC(=O)O)[C@@H](C)O` [LLLGAATG], in test [30], the MIC was ≥ 86.7 µM.

On to `NC(=O)[C@H](CCCN=C(N)N)NC(=O)[C@H](CO)NC(=O)[C@H](CCCN=C(N)N)NC(=O)[C@@H](N)CO` [SRSR], for which the MIC in test [31] was ≥ 100 µM.

As to `CC(C)C[C@H](NC(=O)CNC(=O)[C@H](CS)NC(=O)CNC(=O)[C@H](CC(N)=O)NC(=O)CNC(=O)[C@H](Cc1c[nH]c2ccccc12)NC(=O)CNC(=O)[C@H](CCCN=C(N)N)NC(=O)[C@H](C)NC(=O)[C@@H](N)C(C)C)C(=O)N[C@@H](Cc1ccccc1)C(=O)NCC(=O)N[C@@H](CCCCN)C(=O)NCC(=O)NCC(=O)O` [VARGWGNGCGLFGKGG], the minimal inhibitory concentration (MIC) (in test [32]; against Bacillus subtilis; in test [33]; with Candida albicans SC5314; in [34]; in [35]) was ≥ 100 µM each time. For the same molecule, in test [22], the MIC was > 100 µM.

As for `CC[C@H](C)[C@H](NC(=O)[C@H](CCCCN)NC(=O)[C@H](CO)NC(=O)[C@H](CC(C)C)NC(=O)[C@@H](NC(=O)[C@H](CCCCN)NC(=O)[C@H](CCCCN)NC(=O)[C@@H](N)Cc1c[nH]c2ccccc12)[C@@H](C)CC)C(=O)N[C@@H](CCCCN)C(=O)N[C@@H](CCCCN)C(=O)N[C@@H](CC(C)C)C(=O)N[C@@H](CC(C)C)C(=O)N[C@@H](CCCCN)C(N)=O` [WKKILSKIKKLLK], the minimum inhibitory concentration (MIC) in [36] came to 3.13 µM (≈ 5.09 µg/mL); in test [37], 6.25 µM (≈ 10.2 µg/mL).
